Experimental data reported in patent US20190375708A1 (VenatoRx Pharmaceuticals, Inc., priority 2018, published 2019).
pEC50: −log10 of the molar value.

Tests used:
[1] = test system: HBV replication in HepAD38 cells; experiment: Anti-HBV replication assay in HepAD38 cells (QPCR of extracellular HBV DNA); type: cell-based, HBV (genotype D, serotype ayw); conditions: Hepatitis B virus, 168 h, 7 days incubation, extracellular HBV DNA by QPCR, read-out: Anti-HBV EC50
In short: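 Steps: seed HepAD38 overnight without tetracycline; refresh medium and add 1 log10 serial dilutions ([…]); incubate 7 days at 37 °C; quantify supernatant HBV DNA by QPCR; derive EC50 from a 4-parameter dose-response fit.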

[2] = In vitro cytotoxicity assay (MTT cell viability) in HepG2 cells; type: cell-based, human; conditions: human
In short: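 Read-out: MTT formazan absorbance at 492 nm, expressed as % of vehicle signal; CC50 by 4-parameter non-linear regression. Parental HepG2, 20,000 cells/well, treated 7 days with compound from 30 μM down to 1.0 nM.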

Row | SMILES | pEC50 [1] | CC50 at 7 days [2] [µM]
1 | Cc1cc(NC(=O)c2c(C)c(C(=O)C(=O)N[C@H]3CC[C@@](O)(C(F)(F)F)CC3)n(C)c2C)ccc1F [Example 207, N-(4-fluoro-3-methylphenyl)-5-(2-(((1r,4r)-4-hydroxy-4-(trifluoromethyl)cyclohexyl)amino)-2-oxoacetyl)-1,2,4-trimethyl-1H-pyrrole-3-carboxamide] | > 7.30 | > 30
2 | Cc1c(C(=O)Nc2cccc(Cl)c2)c(C)n(C)c1C(=O)C(=O)N[C@H](C)C(F)(F)F [Example 603, (R)-N-(3-chlorophenyl)-1,2,4-trimethyl-5-(2-oxo-2-((1,1,1-trifluoropropan-2-yl)amino)acetyl)-1H-pyrrole-3-carboxamide] | > 7.30 | 5 to 30
3 | Cc1cc(NC(=O)c2c(C)c(C(=O)C(=O)N[C@@H](C(=O)O)C3CCCCC3)n(C)c2C)ccc1F [Example 69, (R)-2-cyclohexyl-2-(2-(4-((4-fluoro-3-methylphenyl)carbamoyl)-1,3,5-trimethyl-1H-pyrrol-2-yl)-2-oxoacetamido)acetic acid] | 6.00 to 6.30 | > 30
4 | Cc1c(C(=O)Nc2ccc(F)c(F)c2)c2n(c1C(=O)C(=O)NC1(C)CCNCC1)CCCC2 [Example 742] | 6.30 to 7.30 | > 30
5 | Cc1cc(NC(=O)c2c(C)c(C(=O)C(=O)NCC(C)(C)O)n3c2CCCC3)ccc1F [Example 444, N-(4-fluoro-3-methylphenyl)-3-(2-((2-hydroxy-2-methylpropyl)amino)-2-oxoacetyl)-2-methyl-5,6,7,8-tetrahydroindolizine-1-carboxamide] | > 7.30 | 5 to 30
6 | CC(C)(CO)NC(=O)C(=O)c1cc(C(=O)Nc2ccc(F)c(Cl)c2)c2n1CCCC2 [Example 427, N-(3-chloro-4-fluorophenyl)-3-(2-((1-hydroxy-2-methylpropan-2-yl)amino)-2-oxoacetyl)-5,6,7,8-tetrahydroindolizine-1-carboxamide] | 6.30 to 7.30 | > 30
7 | Cc1c(C(=O)Nc2ccc(F)c(F)c2)c2n(c1C(=O)C(=O)NCC(C)(C)CO)CCCC2 [Example 461, N-(3,4-difluorophenyl)-3-(2-((3-hydroxy-2,2-dimethylpropyl)amino)-2-oxoacetyl)-2-methyl-5,6,7,8-tetrahydroindolizine-1-carboxamide] | > 7.30 | 5 to 30
8 | Cc1c(C(=O)Nc2ccc(F)c(F)c2)c(Cl)c(C(=O)C(=O)NC2(C)CC(F)(F)C2)n1C [Example 375, 4-chloro-5-(2-((3,3-difluoro-1-methylcyclobutyl)amino)-2-oxoacetyl)-N-(3,4-difluorophenyl)-1,2-dimethyl-1H-pyrrole-3-carboxamide] | > 7.30 | > 30
9 | Cc1c(C(=O)Nc2ccc(F)c(Cl)c2)c(C)n(C)c1C(=O)C(=O)NC(C)(C)CN1CCOCC1 [Example 332, N-(3-chloro-4-fluorophenyl)-1,2,4-trimethyl-5-(2-((2-methyl-1-morpholinopropan-2-yl)amino)-2-oxoacetyl)-1H-pyrrole-3-carboxamide] | > 7.30 | > 30
10 | Cc1cc(NC(=O)c2c(Cl)c(C(=O)C(=O)N[C@H]3CCC[C@H]3O)n3c2CCCC3)ccc1F [Example 506, 2-chloro-N-(4-fluoro-3-methylphenyl)-3-(2-(((1S,2R)-2-hydroxycyclopentyl)amino)-2-oxoacetyl)-5,6,7,8-tetrahydroindolizine-1-carboxamide] | 6.00 to 6.30 | 5 to 30
11 | Cc1cc(NC(=O)c2c(C)c(C(=O)C(=O)NC34CC5CC(C3)C(O)C(C5)C4)n(C)c2C)ccc1F [Example 59, N-(4-fluoro-3-methylphenyl)-5-(2-(((1s,3R,4s,5S,7s)-4-hydroxyadamantan-1-yl)amino)-2-oxoacetyl)-1,2,4-trimethyl-1H-pyrrole-3-carboxamide] | > 7.30 | > 30
12 | Cc1cc(NC(=O)c2c(C)c(C(=O)C(=O)N[C@@H](C(=O)NCCO)C(C)(C)C)n(C)c2C)ccc1F [Example 86, (R)-N-(4-fluoro-3-methylphenyl)-5-(2-((1-((2-hydroxyethyl)amino)-3,3-dimethyl-1-oxobutan-2-yl)amino)-2-oxoacteyl)-1,2,4-trimethyl-1H-pyrrole-3-carboxamide] | > 7.30 | 5 to 30
13 | Cc1cc(NC(=O)c2c(C)c(C(=O)C(=O)NC3(C)CC(F)(F)C3)n(C)c2C)cnc1F [Example 206, 5-(2-((3,3-difluoro-1-methylcyclobutyl)amino)-2-oxoacetyl)-N-(6-fluoro-5-methylpyridin-3-yl)-1,2,4-trimethyl-1H-pyrrole-3-c carboxamide] | > 7.30 | > 30
14 | Cc1cc(NC(=O)c2c(C)c(C(=O)C(=O)NC(C)(C)C(N)=O)n(C)c2C)ccc1F [Example 36, 5-(2-((1-amino-2-methyl-1-oxopropan-2-yl)amino)-2-oxoacetyl)-N-(4-fluoro-3-methylphenyl)-1,2,4-trimethyl-1H-pyrrole-3-carboxamide] | > 7.30 | > 30
15 | CC(C)(CO)CNC(=O)C(=O)c1c(Cl)c(C(=O)Nc2ccnc(F)c2)c2n1CCCC2 [Example 526, 2-chloro-N-(2-fluoropyridin-4-yl)-3-(2-((3-hydroxy-2,2-dimethylpropyl)amino)-2-oxoacetyl)-5,6,7,8-tetrahydroindolizine-1-carboxamide] | < 6.00 | > 30
16 | Cc1cc(NC(=O)c2c(C)c(C(=O)C(=O)N[C@H](C)C(F)(F)F)n(C)c2C)ccc1F [Example 289, (R)-N-(4-fluoro-3-methylphenyl)-1,2,4-trimethyl-5-(2-oxo-2-((1,1,1-trifluoropropan-2-yl)amino)acetyl)-1H-pyrrole-3-carboxamide] | > 7.30 | 5 to 30
17 | Cc1cc(NC(=O)c2c(C)c(C(=O)C(=O)NC(C)(C)C)n(CCF)c2C)ccc1F [Example 115, 5-(2-(tert-butylamino)-2-oxoacetyl)-N-(4-fluoro-3-methylphenyl)-1-(2-fluoroethyl)-2,4-dimethyl-1H-pyrrole-3-carboxamide] | > 7.30 | > 30
18 | Cc1cc(NC(=O)c2c(C)c(C(=O)C(=O)NCc3nc(C(F)(F)F)no3)n(C)c2C)ccc1F [Example 243, N-(4-fluoro-3-methylphenyl)-1,2,4-trimethyl-5-(2-oxo-2-(((3-(trifluoromethyl)-1,2,4-oxadiazol-5-yl)methyl)amino)acetyl)-1H-pyrrole-3-carboxamide] | > 7.30 | 5 to 30
19 | Cc1cc(NC(=O)c2c(C)c(C(=O)C(=O)N[C@H](C)C(F)(F)F)n3c2CCCC3)cnc1F [Example 469, (R)-N-(6-fluoro-5-methylpyridin-3-yl)-2-methyl-3-(2-oxo-2-((1,1,1-trifluoropropan-2-yl)amino)acetyl)-5,6,7,8-tetrahydroindolizine-1-carboxamide] | 6.00 to 6.30 | 5 to 30
20 | COC(=O)[C@H](NC(=O)C(=O)c1c(C)c(C(=O)Nc2ccc(F)c(C)c2)c(C)n1C)C(C)(C)C [Example 24, methyl (R)-2-(2-(4-((4-fluoro-3-methylphenyl)carbamoyl)-1,3,5-trimethyl-1H-pyrrol-2-yl)-2-oxoacetamido)-3,3-dimethylbutanoate] | > 7.30 | > 30
21 | CCOC(=O)[C@@H](CO)NC(=O)C(=O)c1c(C)c(C(=O)Nc2ccc(F)c(C)c2)c(C)n1C [Example 26, ethyl (2-(4-((4-fluoro-3-methylphenyl)carbamoyl)-1,3,5-trimethyl-1H-pyrrol-2-yl)-2-oxoacetyl)-D-serinate] | > 7.30 | > 30
22 | Cc1noc([C@@H](C)NC(=O)C(=O)c2c(Cl)c(C(=O)Nc3ccc(F)c(C)c3)c3n2CCC3)n1 [Example 546, (R)-6-chloro-N-(4-fluoro-3-methylphenyl)-5-(2-((1-(3-methyl-1,2,4-oxadiazol-5-yl)ethyl)amino)-2-oxoacetyl)-2,3-dihydro-1H-pyrrolizine-7-carboxamide] | > 7.30 | > 30
23 | Cc1cc(NC(=O)c2c(C)c(C(=O)C(=O)N[C@H]3CCNC3=O)n(C)c2C)ccc1F [Example 671, (S)-N-(4-fluoro-3-emthylphenyl)-1,2,4-trimethyl-5-(2-oxo-2-((2-oxopyrroldin-3-yl)amino)acetyl)-1H-pyrrole-3-carboxamide] | > 7.30 | > 30
24 | Cc1cc(NC(=O)c2c(C)c(C(=O)C(=O)NOC(C)(C)CO)n(C)c2C)ccc1F [Example 156, N-(4-fluoro-3-methylphenyl)-5-(2-(((1-hydroxy-2-methylpropan-2-yl)oxy)amino)-2-oxoacetyl)-1,2,4-trimethyl-1H-pyrrole-3-carboxamide] | > 7.30 | > 30
25 | CC(C)(CO)CNC(=O)C(=O)c1c(Cl)c(C(=O)Nc2ccc(F)c(F)c2)c2n1CCCC2 [Example 528, 2-chloro-N-(3,4-difluorophenyl)-3-(2-((3-hydroxy-2,2-dimethylpropyl)amino)-2-oxoacetyl)-5,6,7,8-tetrahydroindolizine-1-carboxamide] | 6.00 to 6.30 | 0.5 to 4.99
26 | Cc1cc(NC(=O)c2c(C)c(C(=O)C(=O)N[C@@H]3CCC[C@H]3O)n(CCF)c2C)ccc1F [Example 195, N-(4-fluoro-3-methylphenyl)-1-(2-fluoroethyl)-5-(2-(((1R,2R)-2-hydroxycyclopentyl)amino)-2-oxoacetyl)-2,4-dimethyl-1H-pyrrole-3-carboxamide] | > 7.30 | > 30
27 | Cc1noc([C@H](C)NC(=O)C(=O)c2c(Cl)c(C(=O)Nc3ccc(F)c(C)c3)c3n2CCC3)n1 [Example 545, (S)-6-chloro-N-(4-fluoro-3-methylphenyl)-5-(2-((1-(3-methyl-1,2,4-oxadiazol-5-yl)ethyl)amino)-2-oxoacetyl)-2,3-dihydro-1H-pyrrolizine-7-carboxamide] | > 7.30 | 5 to 30
